From ChEMBL document CHEMBL1152231, “Discovery of small molecule agonists for the bombesin receptor subtype 3 (BRS-3) based on an omeprazole lead” (Bioorg Med Chem Lett, 2008) come the findings set out here.

Data set [1] addresses T1, Bombesin receptor subtype-3 (Homo sapiens, UniProt P32247).
T1 sequence (P32247 whole entry): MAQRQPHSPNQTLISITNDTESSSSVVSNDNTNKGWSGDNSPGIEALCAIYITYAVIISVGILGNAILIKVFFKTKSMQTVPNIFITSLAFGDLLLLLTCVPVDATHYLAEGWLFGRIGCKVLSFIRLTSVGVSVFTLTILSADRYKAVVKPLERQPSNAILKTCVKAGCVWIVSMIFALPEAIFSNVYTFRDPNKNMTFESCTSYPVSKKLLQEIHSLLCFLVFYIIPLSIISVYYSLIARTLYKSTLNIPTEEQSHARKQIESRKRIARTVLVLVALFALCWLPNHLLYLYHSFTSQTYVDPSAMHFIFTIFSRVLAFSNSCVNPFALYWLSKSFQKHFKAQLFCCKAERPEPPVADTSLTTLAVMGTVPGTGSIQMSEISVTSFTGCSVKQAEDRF
As to the kind of experiment: Agonist activity at recombinant BRS-3 receptor expressed in baculovirus-transduced HEK293 cells assessed as intracellular calcium mobilization by FLIPR assay. The data set is classed as functional.

The target of data set [2] is T2, Bombesin receptor subtype-3 (Homo sapiens) (UniProt P32247).
T2 sequence (whole entry): T1 sequence (P32247 whole entry)
As to the kind of experiment: Agonist activity at recombinant BRS-3 receptor expressed in baculovirus-transduced HEK293 cells assessed as maximum response of intracellular calcium mobilization by FLIPR assay relative to D-Phe-Gln-Trp-Ala-Val-beta-Ala-His-Phe-Nle-NH2. The data set is classed as functional.

The nature of data set [3]: Clearance in iv dosed rat. In kind it is ADME, organism-based. The note with it: in vivo.
A short description of data set [4]: Half life in iv dosed rat. The data set is classed as ADME, organism-based. The conditions noted are these: in vivo.
A short description of data set [5]: Volume of distribution at steady state in iv dosed rat. The data set is classed as ADME, organism-based. The conditions noted are these: in vivo, read-out: Vdss.
Data set [6] has as its target T3, Neuromedin-B receptor (Homo sapiens, UniProt P28336). Put plainly: Binding affinity to neuromedin B receptor.
Data set [7] addresses T1, Bombesin receptor subtype-3. As to the kind of experiment: Binding affinity to BRS-3 receptor.
Data set [8] addresses T3, Neuromedin-B receptor. As to the kind of experiment: Agonist activity at recombinant neuromedin B receptor expressed in baculovirus-transduced HEK293 cells assessed as intracellular calcium mobilization by FLIPR assay. In kind it is functional. For orientation: A change in cytosolic calcium serves as a functional read-out for many receptors and channels.
The target in data set [9] is T4, Gastrin-releasing peptide receptor (Homo sapiens, UniProt P30550). As to the kind of experiment: Agonist activity at recombinant gastrin releasing peptide receptor expressed in baculovirus-transduced HEK293 cells assessed as intracellular calcium mobilization by FLIPR assay. The data set is classed as functional.
For data set [10], the target named is T4, Gastrin-releasing peptide receptor. As to the kind of experiment: Binding affinity to gastrin releasing peptide receptor.

Square brackets hold non-standard residues; d marks the D form. Peptide text beside a SMILES is read from it. Nle = CCCC[C@H](N)C(=O)O; βAla = NCCC(=O)O Where only a bound is given, the exact number is not on record here.

T3 sequence (P28336 whole entry): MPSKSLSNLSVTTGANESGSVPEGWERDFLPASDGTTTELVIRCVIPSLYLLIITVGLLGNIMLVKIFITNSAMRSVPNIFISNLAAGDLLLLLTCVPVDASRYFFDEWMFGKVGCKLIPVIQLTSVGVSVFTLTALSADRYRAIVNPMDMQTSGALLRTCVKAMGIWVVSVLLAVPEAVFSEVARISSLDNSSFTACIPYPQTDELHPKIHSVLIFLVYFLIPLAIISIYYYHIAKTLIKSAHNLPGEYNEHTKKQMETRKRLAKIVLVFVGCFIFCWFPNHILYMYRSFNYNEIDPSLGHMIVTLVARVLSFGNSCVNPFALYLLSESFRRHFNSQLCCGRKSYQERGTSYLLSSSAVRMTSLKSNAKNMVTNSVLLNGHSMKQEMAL
T4 sequence (P30550 whole entry): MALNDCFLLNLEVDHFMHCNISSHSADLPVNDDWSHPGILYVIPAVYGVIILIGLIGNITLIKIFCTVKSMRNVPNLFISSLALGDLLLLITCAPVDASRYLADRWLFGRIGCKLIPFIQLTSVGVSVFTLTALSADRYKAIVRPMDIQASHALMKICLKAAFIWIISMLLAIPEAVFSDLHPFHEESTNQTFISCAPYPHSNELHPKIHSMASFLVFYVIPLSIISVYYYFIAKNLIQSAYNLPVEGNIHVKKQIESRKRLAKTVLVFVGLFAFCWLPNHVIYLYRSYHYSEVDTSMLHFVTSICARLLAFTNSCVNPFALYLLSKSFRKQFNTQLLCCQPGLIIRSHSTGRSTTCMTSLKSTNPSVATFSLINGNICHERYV

In general, EC50 refers to the concentration at which the effect is half-maximal. As to `Cc1cc2nc(COc3cc4c(cc3Cl)OCO4)[nH]c2cc1Cl`, the concentration for a half-maximal effect (EC50) in data set [1] is more than 32000 nM.

Regarding `COc1ccc2nc(CCc3cc4c(cc3Cl)OCO4)[nH]c2c1`, the 50% effective concentration (EC50) in data set [1] came to 210 nM. Further, the %max in data set [2] was 82%.

On to `COc1ccc2nc(SCc3ccc(F)c(F)c3)[nH]c2c1`, for which the concentration giving a half-maximal response (EC50) in data set [1] was more than 32000 nM.

Broadly, the clearance is the volume of plasma or blood freed of the substance per unit of time. Read a high clearance as a high capacity for elimination. One may read the half-life as the time in which the quantity being followed falls by half. The low end stands for fast loss, the high end for slow loss. With `COc1ccc2nc(COc3cc4c(cc3Cl)OCO4)[nH]c2c1`, the EC50 in data set [1] worked out at 510 nM. This compound also had a clearance in [3] of 61 mL/min/kg. In data set [4], this compound had a half-life of 30 min. The %max in [2] was 71%. Besides, the Vd in [5] was 1.2 L/kg.

Regarding `COc1ccc2nc(CCc3cc4c(cc3Cl)OCO4)sc2c1`, the EC50 in data set [1] is more than 32000 nM.

As for `COc1ccc2nc(/C=C/c3cc4c(cc3Cl)OCO4)[nH]c2c1`, the EC50 in data set [1] is more than 32000 nM.

Consider `COc1ccc2nc(CCc3cc4c(cc3Cl)OCO4)oc2c1`, for which, in data set [1], the EC50 is more than 32000 nM.

For the compound `COc1ccc2nc(NCc3cc4c(cc3Cl)OCO4)[nH]c2c1`, the EC50 in data set [1] was more than 32000 nM.

Turning to `Clc1ccc2nc(COc3cc4c(cc3Cl)OCO4)[nH]c2c1`, the half-maximal effective concentration (EC50) in data set [1] is 570 nM. Further, in data set [2], the %max is 59%.

For `COc1ccc2[nH]c(SCc3ncc(C)c(OC)c3C)nc2c1` [UFIPRAZOLE], in data set [1], the EC50 was 3900 nM. For the same compound, in [2], the %max is 64%.

On to `Clc1cc2c(cc1OCc1nc3ccc(Oc4ccccc4)cc3[nH]1)OCO2`, for which the half-maximal effective concentration (EC50) in [1] is more than 32000 nM.

In the case of `COc1ccc2nc(SCc3ccc4ccccc4c3)[nH]c2c1`, the EC50 in data set [1] was more than 32000 nM.

For `COc1ccc2[nH]c([S+]([O-])Cc3ncc(C)c(OC)c3C)nc2c1` (stereo not given) [OMEPRAZOLE], the half-maximal effective concentration (EC50) in data set [1] came out at 14000 nM. In [2], the %max is 27%.

Consider `COc1cc(CSc2nc3ccc(OC)cc3[nH]2)cc(OC)c1`, for which, in data set [1], the EC50 was found to be 1600 nM. The %max in data set [2] came out at 68%.

Consider `COc1ccc2nc(NC(=O)c3cc4c(cc3Cl)OCO4)[nH]c2c1`, for which, in data set [1], the EC50 is more than 32000 nM.

As to `COc1ccc2nc(SCc3cc4c(cc3Cl)OCO4)[nH]c2c1`, the concentration for a half-maximal effect (EC50) in data set [1] came to 380 nM. Also, the %max in data set [2] is 67%.

For the compound `COc1ccc2nc(SCc3ccncc3)[nH]c2c1`, the half-maximal effective concentration (EC50) in data set [1] was more than 32000 nM.

In the case of `FC(F)(F)c1ccc2nc(COc3cc4c(cc3Cl)OCO4)[nH]c2c1`, the concentration for a half-maximal effect (EC50) in [1] came out at 240 nM. The %max in [2] was 69%.

Regarding `COc1ccc2oc(CCc3cc4c(cc3Cl)OCO4)nc2c1`, in [1], the concentration for a half-maximal effect (EC50) is more than 32000 nM.

For orientation: Ki means the dissociation constant of the complex between target and ligand, obtained from inhibition or displacement. Higher therefore signals weaker binding. Turning to `CCCC[C@H](NC(=O)[C@H](Cc1ccccc1)NC(=O)[C@H](Cc1c[nH]cn1)NC(=O)CCNC(=O)[C@@H](NC(=O)[C@H](C)NC(=O)[C@H](Cc1c[nH]c2ccccc12)NC(=O)[C@H](CCC(N)=O)NC(=O)[C@H](N)Cc1ccccc1)C(C)C)C(N)=O` (H-[dF]QWAV[βAla]HF[Nle]-NH2), the Ki worked out at 8.9 nM at Neuromedin-B receptor [6], 0.36 nM in data set [7] and 0.99 nM in data set [10]. Besides, the EC50 in [1] was 3.9 nM; at Neuromedin-B receptor [8] it was 0.55 nM; in data set [9], 0.06 nM.

Regarding `COc1ccc2nc(C(C)Cc3cc4c(cc3Cl)OCO4)[nH]c2c1` (stereo not given), the concentration giving a half-maximal response (EC50) in [1] turned out to be 350 nM. The %max in data set [2] was found to be 83%.

Turning to `COc1ccc2nc(SCc3n[nH]c4ccccc34)[nH]c2c1`, in data set [1], the EC50 is more than 32000 nM.

As to `COc1ccc2sc(CCc3cc4c(cc3Cl)OCO4)nc2c1`, in data set [1], the concentration for a half-maximal effect (EC50) was more than 32000 nM.
